# Data: the supplement of paper PMC10307832
# Assays:
# Bromopyruvate = compound: C(C(=O)C(=O)O)Br [Bromopyruvate]; test: relative viability (nuclei count vs DMSO), 5 days (fraction); higher = more cells survive
# Summary of the method: (§1)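 Five library-drug doses spaced by √10 were pinned onto vehicle-anchored 1536-well plates of lung cancer cell lines that had been kept overnight at 37 °C. Cells went 5 days without medium change, then were fixed, permeabilised and Hoechst-stained together, imaged at 4× and counted by MetaXpress. Viability is the ratio of treated-well to vehicle-well nuclei, taken as a median over plates. Plates required control CV below 25% and at least one doubling.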
# Bicalutamide = compound: CC(O)(CS(=O)(=O)c1ccc(F)cc1)C(=O)Nc1ccc(C#N)c(C(F)(F)F)c1 [Bicalutamide]; test: as above
# Summary of the method: as §1
Cell Line,relative viability (Bromopyruvate; 1 µM),relative viability (Bromopyruvate; 3.162 µM),relative viability (Bromopyruvate; 10 µM),relative viability (Bromopyruvate; 31.62 µM),relative viability (Bromopyruvate; 100 µM),relative viability (Bicalutamide; 0.08 µM),relative viability (Bicalutamide; 0.253 µM),relative viability (Bicalutamide; 0.8 µM),relative viability (Bicalutamide; 2.53 µM)
201T,1.03,0.983,1.04,0.946,0.997,1.02,0.932,1.02,1.01
A549,0.942,0.969,1.18,0.95,1.06,0.974,0.875,1.16,0.973
A-427,1.05,1.09,1.16,0.967,1.1,0.996,1.02,1.17,0.869
ABC-1,1.14,0.935,0.807,0.995,0.945,0.998,0.857,0.951,0.943
BEN,1.07,0.949,0.971,0.951,0.934,1.01,0.876,1.34,1.03
CAL-12T,0.972,0.982,0.919,0.982,0.956,1.03,0.855,1.11,0.842
COR-L23,1.02,0.913,1.19,1.03,0.723,1.03,1.01,1.18,0.877
COR-L 105,0.87,1.06,0.866,0.838,0.687,1.05,0.814,1.03,0.825
Calu-6,0.934,0.995,1.12,0.994,0.809,1.09,0.989,1.07,0.987
ChaGo-K-1,0.979,0.995,1.07,1,1.02,0.998,0.962,1.18,0.976
EBC-1,0.912,0.94,1.14,0.935,0.987,0.977,1.02,1.1,0.976
EKVX,0.988,0.973,1.06,1.01,0.969,1.02,0.984,1.09,0.914
EMC-BAC-2,0.982,0.933,0.986,0.804,1.01,1.03,0.894,1.05,0.822
EPLC-272H,1.01,1.03,1.11,0.952,1.04,0.996,0.798,1.06,0.908
H3255,0.953,0.999,1.02,1.01,1.12,0.969,0.896,1.02,0.907
HARA,1.01,1.1,0.997,0.983,1.05,1.02,0.802,1.01,0.953
HCC-15,1.03,1.06,1.08,0.981,0.957,1.02,0.973,1.15,1
HCC-44,1.02,0.986,0.992,1.01,0.985,1.03,0.998,0.981,1.01
HCC-78,1.08,0.971,1.02,0.94,0.993,0.941,0.991,1.22,0.985

Cell Line,relative viability (Bromopyruvate; 1 µM),relative viability (Bromopyruvate; 3.162 µM),relative viability (Bromopyruvate; 10 µM),relative viability (Bromopyruvate; 31.62 µM),relative viability (Bromopyruvate; 100 µM),relative viability (Bicalutamide; 0.08 µM),relative viability (Bicalutamide; 0.253 µM),relative viability (Bicalutamide; 0.8 µM),relative viability (Bicalutamide; 2.53 µM)
HCC-366,0.996,0.979,1.05,1.02,0.998,1.01,0.95,1.06,1.01
HCC-827,1.04,1.02,0.988,1.06,1.07,1.08,0.842,1.07,1.03
HOP-62,1.06,0.981,0.936,1.03,1.03,1.12,0.988,1.06,1.03
IA-LM,1.03,0.96,0.983,0.884,0.924,1.02,0.936,1.18,0.95
LC-2-ad,1.01,0.985,1.03,0.924,0.964,1.09,0.935,1.08,0.986
LCLC-97TM1,1.02,1.06,1,0.974,0.859,1.04,0.974,1.29,0.862
LCLC-103H,0.953,0.992,1.11,0.994,0.976,0.986,0.971,1.08,0.918
LK-2,0.98,1.02,1.11,0.936,0.832,0.961,0.825,1.31,1.02
LOU-NH91,1.09,1.01,0.973,0.984,1.01,1.09,0.765,1.05,1.04
LU99A,0.852,0.913,0.977,0.967,1.03,0.926,0.885,1.22,0.755
LXF-289,1.03,1.01,1.04,1.03,1.02,0.998,0.958,0.984,0.979
NCI-H23,1.01,1.19,0.979,0.909,0.931,1.02,0.9,1.08,0.812
NCI-H322M,0.93,0.956,0.865,0.94,1.04,0.969,0.941,1.05,1.06
NCI-H358,1.03,1.02,0.939,0.909,0.929,0.988,0.865,1.13,1.06
NCI-H441,0.949,1.18,1.17,0.914,0.679,1.13,0.803,1.45,0.976
NCI-H460,0.99,0.972,1.13,1,1.01,0.974,0.952,1.07,0.988
NCI-H520,0.926,1.17,0.989,1.07,0.855,0.948,0.952,1.17,0.906
NCI-H522,1.06,0.975,0.941,0.939,0.785,1.07,0.828,0.999,0.991
